Results on four molecules are retold here after US20240050434A1, “HORMAD1 THERAPEUTICS” (Royal Cancer Hospital, priority 2020, published 2024).

“Also recorded” adds a separate entry of the source.

For series [1] the following is noted: Mortlock et al., 2007; cited from earlier work.
Series [2] relates to RPE1 cells expressing a doxycycline-inducible HORMAD1 construct. The series can be described thus: Cell viability by cell titre glo in RPE1 cells with doxycycline-inducible HORMAD1. It is filed as cell-based. As to conditions: increasing doses, 5 days post drug, cell titre glo, normalised to vehicle. How it is done:
RPE1 cells expressing a doxycycline-inducible HORMAD1 construct were treated with doxycycline or vehicle. […] Six days post HORMAD1 induction and 5 days post drug, cell viability was estimated using cell titre glo reagent. Surviving fractions were calculated (normalised to vehicle treated cells).
RPE1 and SUM159 cells expressing a doxycycline-inducible HORMAD1 construct were treated with doxycycline or vehicle. […] Surviving fractions were calculated (normalised to vehicle treated cells). (FIGS. 7a, b and 14c and d). Data from 3 replicas was analysed using 2-way ANOVA. 5 days post drugging, cell viability was estimated using cell titre glo reagent. Surviving fractions were calculated (normalised to vehicle treated cells). Data from 4 replicas was analysed using 2-way ANOVA.
RPE1 cells expressing a doxycycline-inducible HORMAD1 construct were treated with doxycycline or vehicle. […] 5 days post drugging, cell viability was estimated using cell titre glo reagent. Surviving fractions were calculated (normalised to vehicle treated cells).
RPE1 cells expressing a doxycycline-inducible HORMAD1 construct were treated with doxycycline or vehicle in order to induce HORMAD1 expression. […] Using cell titre glo as a measure of cell viability, surviving fractions were calculated (normalised to eribulin alone).
RPE1 cells expressing a doxycycline-inducible HORMAD1 construct were treated with doxycycline or vehicle. […] Using cell titre glo as a measure of cell viability, surviving fractions were calculated (normalised to olaparib alone).

For series [3] the test system is unchanged. The series can be described thus: Clonogenic survival assay (SRB) in RPE1 cells with doxycycline-inducible HORMAD1. Conditions: increasing doses, 7-14 days, normalised to vehicle. It is filed as cell-based. The protocol:
Cell confluence was analysed every 6 hours for 10 days, using incucyte software. Data are from 3 biological replicates and analysed using a two-way ANOVA. […] RPE1 cells expressing a doxycycline-inducible HORMAD1 expression construct were exposed to doxycycline or vehicle (H2O) and were exposed to 20 nM of the Aurora B inhibitor, AZD1152-HQPA. Cell confluence was analysed every 6 hours for 10 days, using incucyte software. Data are from 3 biological replicates and analysed using a two-way ANOVA. […] 7-10 days post drugging, cells were fixed, stained with SRB, and colonies were counted using Cell Profiler. […] 10 days post drugging, cells were fixed, stained with SRB, and colonies were counted using Cell Profiler. […] RPE1 cells expressing a doxycycline-inducible HORMAD1 expression construct were exposed to doxycycline or vehicle (H2O) and to increasing doses of the Aurora B inhibitor, AZD1152-HQPA. 7-10 days post drugging, cells were fixed, stained with SRB, and colonies were counted using Cell Profiler. […] SUM159 cells expressing a doxycycline-inducible HORMAD1 expression construct were exposed to doxycycline or vehicle (H2O) and to increasing doses of the Aurora B inhibitor, AZD1152-HQPA. 10 days post drugging, cells were fixed, stained with SRB, and colonies were counted using Cell Profiler.
RPE1 cells were reverse transfected with BUB1 or control siRNA particles for 3 days. Cell lysates were collected, and analysed by western blotting using anti-BUB1 and anti-β-ACTIN antibodies. […] RPE1 cells expressing a doxycycline-inducible HORMAD1 expression construct were exposed to doxycycline or vehicle, and were reverse transfected with BUB1 or control siRNA particles. 5 days post transfection, cellular viability was estimated using cell titer glo reagent and surviving fractions were calculated relative to DMSO treated cells. […] Statistical significance estimated using a one-way ANOVA with Sidak's correction. C. Western blot illustrating expression of HORMAD1 in wild-type RPE1 cells and RPE1 cells depleted of BUB1 using CRISPR. WT and BUB1 depleted RPE1 cells expressing a doxycycline-inducible HORMAD1 expression construct, were exposed to doxycycline or vehicle for 3 days. Cell lysates were collected, and analysed by SDS-PAGE and western blotting using anti-HORMAD1, anti-H3 and anti-BUB1 antibodies. […] WT and BUB1 depleted RPE1 cells expressing a doxycycline-inducible HORMAD1 expression construct were exposed to doxycycline or vehicle. 7-10 days post doxycycline induction, cells were fixed, stained with SRB, and cellular viability was estimated using SRB absorbance readings. […] Statistical significance estimated using a one-way ANOVA with Sidak's correction. […] RPE1 expressing a doxycycline-inducible HORMAD1 expression construct, were exposed to doxycycline or vehicle. […] Cells were fixed, stained with SRB, and cellular viability was estimated using SRB absorbance readings. […] Cells were imaged every 4 hours, and confluence was continually measured using incucyte software. Growth curves were plotted, based on confluence. Data represent 3 biological replicas. […] Patient-derived organoids models were grown in culture and cell lysates collected and analysed using SDS-PAGE and western blotting using anti-HORMAD1 and anti-β-ACTIN antibodies. […] Cellular viability was estimated using cell titer glo reagent and surviving fractions were calculated relative to DMSO treated cells. […] Left, dose response curves for each organoid.

The target of series [4] is T1, AURORA A kinase (Homo sapiens, UniProt O14965).
T1 sequence (O14965 1-403): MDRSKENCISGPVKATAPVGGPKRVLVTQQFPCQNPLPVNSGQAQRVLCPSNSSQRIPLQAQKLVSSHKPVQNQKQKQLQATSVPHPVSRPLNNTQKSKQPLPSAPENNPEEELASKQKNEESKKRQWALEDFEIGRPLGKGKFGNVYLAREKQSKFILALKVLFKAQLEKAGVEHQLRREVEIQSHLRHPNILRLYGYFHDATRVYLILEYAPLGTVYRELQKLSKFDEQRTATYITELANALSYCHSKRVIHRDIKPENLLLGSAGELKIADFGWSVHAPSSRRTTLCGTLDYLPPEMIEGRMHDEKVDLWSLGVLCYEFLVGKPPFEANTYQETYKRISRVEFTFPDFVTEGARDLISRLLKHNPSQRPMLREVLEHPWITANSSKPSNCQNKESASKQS
As to conditions: Shimomura et al., 2010; cited from earlier work.

Series [5] concerns H1299 cells expressing shRNA targeting HORMAD1. Conditions: 300 nM nocodazole 6 hours, then 200 nM reversine. The protocol: A. Diagram of experimental outline. Cells were exposed to doxycycline for 3 days, arrested in mitosis using 300 nM nocodazole or 100 nM Paclitaxel. Mitotic cells were filmed every 4 minutes for 1200 minutes, and the time cells remained arrested in mitosis before exiting via mitotic slippage was assessed. […] RPE1 cells expressing a doxycycline-inducible HORMAD1 cDNA expression construct were exposed to doxycycline or vehicle (H2O) for three days at which point cells were exposed to 300 nM nocodazole and filmed every 4 minutes using time-lapse microscopy. The time individual cells remained arrested in mitosis was quantified and presented as the % of cells arrested in mitosis at each time point. Data reflects a total of 125 cells from 3 biological repeats and was analysed using Mantel-Cox test. C. […] The time individual cells remained arrested in mitosis was quantified and presented as the % of cells arrested in mitosis at each time point. Data reflects a total of 125 cells from 3 biological repeats and was analysed using Mantel-Cox test. […] H1299 cells expressing two individual, doxycycline-inducible, shRNA particles targeting HORMAD1 as well as a non-targeting control were grown for three days in the presence of doxycycline at which point cell lysates were generated and analysed by SDS-PAGE and western blotting using anti-HORMAD1 and anti-β-ACTIN antibodies. […]

Series [6] deals with HeLa cells transfected with siRNA targeting HORMAD1. As to conditions: 300 nM nocodazole 6 hours, then 100 nM reversine. How it is done:
(§1) HeLa cells were transfected with two individual siRNA particles targeting HORMAD1 as well as a non-targeting control, grown for three days at which point cell lysates were generated and analysed SDS-PAGE and western blotting using anti-HORMAD1 and anti-H3 antibodies. […] HeLa cells were transfected with two individual siRNA particles targeting HORMAD1 as well as a non-targeting control, grown for three days at which point cells were exposed to 300 nM nocodazole and filmed every 4 minutes using time-lapse microscopy. The time individual cells remained arrested in mitosis was quantified and presented as the % of cells arrested in mitosis at each time point. Data reflects a total of 125 cells from 3 biological repeats and was analysed using Mantel-Cox test with Bonferonni correction. C. […] MDA-MB-436 cells expressing two individual, doxycycline-inducible, shRNA particles targeting HORMAD1 as well as a non-targeting control were grown for three days in the presence of doxycycline at which point cell lysates were generated and analysed SDS-PAGE and western blotting using anti-HORMAD1 and anti-6-ACTIN antibodies. […] MDA-MB-436 cells expressing two individual, doxycycline-inducible, shRNA particles targeting HORMAD1 as well as a non-targeting control were grown for three days in the presence of doxycycline at which point cells were exposed to 300 nM nocodazole and filmed every 4 minutes using time-lapse microscopy. The time individual cells remained arrested in mitosis was quantified and presented as the % of cells arrested in mitosis at each time point. Data reflects a total of 50 cells from 2 biological repeats and was analysed using Mantel-Cox test with Bonferonni correction. […] The time individual cells remained arrested in mitosis was quantified and presented as the % of cells arrested in mitosis at each time point. […] The time individual cells remained arrested in mitosis was quantified and presented as the % of cells arrested in mitosis at each time point.

Series [7] concerns SUM159 cells induced to express HORMAD1. As to conditions: 300 nM nocodazole 6 hours, then 100 nM reversine. How it is done: as §1
The test system of series [8] is MDA-MB-436 cells expressing shRNA targeting HORMAD1. As to conditions: 300 nM nocodazole 6 hours, then 200 nM reversine. How it is done:
as §1

For series [9], the system named is MCF10A cells expressing a doxycycline-inducible HORMAD1 cDNA expression construct. Conditions: 300 nM nocodazole 6 hours, then 100 nM reversine. How it is done:
as §1

Series [10] deals with RPE1 cells expressing a doxycycline-inducible HORMAD1 expression construct. Briefly: Mitotic slippage by time-lapse microscopy in nocodazole-arrested RPE1 cells. It is filed as cell-based. The protocol: A. Diagram of experimental outline. Cells were exposed to doxycycline for 3 days, arrested in mitosis using 300 nM nocodazole or 100 nM Paclitaxel. Mitotic cells were filmed every 4 minutes for 1200 minutes, and the time cells remained arrested in mitosis before exiting via mitotic slippage was assessed. […] RPE1 cells expressing a doxycycline-inducible HORMAD1 cDNA expression construct were exposed to doxycycline or vehicle (H2O) for three days at which point cells were exposed to 300 nM nocodazole and filmed every 4 minutes using time-lapse microscopy. The time individual cells remained arrested in mitosis was quantified and presented as the % of cells arrested in mitosis at each time point. Data reflects a total of 125 cells from 3 biological repeats and was analysed using Mantel-Cox test. C. […] The time individual cells remained arrested in mitosis was quantified and presented as the % of cells arrested in mitosis at each time point. Data reflects a total of 125 cells from 3 biological repeats and was analysed using Mantel-Cox test. […] H1299 cells expressing two individual, doxycycline-inducible, shRNA particles targeting HORMAD1 as well as a non-targeting control were grown for three days in the presence of doxycycline at which point cell lysates were generated and analysed by SDS-PAGE and western blotting using anti-HORMAD1 and anti-β-ACTIN antibodies. […] The time individual cells remained arrested in mitosis was quantified and presented as the % of cells arrested in mitosis at each time point. Data reflects a total of 90 cells from 3 biological repeats and was analysed using Mantel-Cox test with Bonferonni correction. […] Mitotic cells were filmed every 2 minutes for 400 minutes, and the time taken before cells exited mitosis via mitotic slippage was assessed. […] The time individual cells remained arrested in mitosis was quantified and presented as the % of cells arrested in mitosis at each time point. […] The time individual cells remained arrested in mitosis was quantified and presented as the % of cells arrested in mitosis at each time point. […]

As to `CCN(CCCOc1ccc2c(Nc3cc(CC(=O)Nc4cccc(F)c4)n[nH]3)ncnc2c1)CCOP(=O)(O)O` [AZD1152], in [1], the “conversion of prodrug in plasma” value is “rapidly converted into AZD1152-HQPA”.
Turning to `O=C(O)[C@]1(Cc2cccc(Nc3nccs3)n2)CC[C@@H](Oc2cccc(Cl)c2F)CC1` [MK-5108], the “growth inhibition (surviving fraction) of HORMAD1 expressing versus HORMAD1-negative RPE1 cells” value in series [2] is reported as “more effectively inhibited”. In [3], the “clonogenic survival / sensitivity of HORMAD1 expressing versus HORMAD1-negative RPE1 cells” value is “confirmed these findings; also recorded: increased Aurora inhibitor sensitivity”. Besides, in series [4], the “concentrations inhibiting AURORA A kinase activity” value is given as “sub-nanomolar”; the “specificity over AURORA B and C” value is recorded as about 200 fold.
In the case of `c1nc2nc(Nc3ccc(N4CCOCC4)cc3)nc(NC3CCCCC3)c2[nH]1` [reversine, 2-(4-morpholinoanilino)-6-cyclohexylaminopurine], the “mitotic slippage in H1299 cells depleted of HORMAD1” value in [5] is recorded as “delayed mitotic slippage”. Besides, the “mitotic slippage in HeLa cells depleted of HORMAD1” value in series [6] is listed as “delayed mitotic slippage”. The “mitotic slippage in SUM159 cells induced to express HORMAD1” value in series [7] was “premature mitotic slippage”. In addition, the “mitotic slippage in MDA-MB-436 cells depleted of HORMAD1” value in series [8] was “delayed mitotic slippage”. Besides, the “mitotic slippage in MCF10A cells induced to express HORMAD1” value in series [9] is recorded as “premature mitotic slippage”. In series [10] (300 nM nocodazole 6 hours, then 100 nM reversine), the “time before slippage in RPE1 cells expressing only the HORMA domain” value is recorded as “reduced”. For the same molecule, in series [10] (300 nM nocodazole arrest, then 100-200 nM reversine, 50 nM BOS172722 or AZD1152-HQPA), the “mitotic slippage / mitotic exit in HORMAD1 induced RPE1 cells” value is reported as “rapid mitotic exit; also recorded: premature mitotic slippage”.
AZ-3146: the “clonogenic survival / sensitivity of HORMAD1 expressing versus HORMAD1-negative RPE1 cells” value in series [3] was “confirmed these findings; also recorded: increased MPSI inhibitor sensitivity”.
